# From paper PMC9144936, “New Cu^+2 Complexes with N-Sulfonamide Ligands: Potential Antitumor, Antibacterial, and Antioxidant Agents” (Molecules, 2022)
# How the values were obtained:
# [1] = test system: human radical growth phase melanoma cell line (WM35); assay: MTT cytotoxicity assay, WM35; type: cell-based; settings: WM35 cells, MTT
# Description: (§1) Three cell lines were used to determine the cytotoxicity of the complexes, a human cervical carcinoma line (HeLa), a human radical growth phase melanoma cell line (WM35), and a normal fibroblastic epithelial cell line (HFL1) using the MTT method. The cells were exposed to C1 and C2 complexes in different concentrations (50, 25, 12.5, 2, and 0.2 µM) at 24, 48, and 72 h. As positive contro, cisplatin was used.
# (§2) To determine the cytotoxicity of the copper complexes, three cell lines were used: a human cervical carcinoma line (HeLa), a human radical growth phase melanoma cell line (WM35), and a normal fibroblastic epithelial cell line (HFL1). The cell lines were obtained from ATCC (American Type Cell Collection, Manassas, VA 20110-2209, USA) and were maintained in DMEM (Sigma-Aldrich, Saint Louis, Missouri, USA) supplemented with 10% fetal bovine serum (Hyclone), 1 mM glutamine (Sigma-Aldrich), and 1% antibiotic antimycotic 100× (Sigma-Aldrich). The cells were cultured at 37 °C in an atmosphere of 5% CO2 and 95% relative humidity.
# (§3) The cytotoxicity assays were performed using the MTT assay (3-(4,5-dimethylthiazol-2-yl)-2,5-diphenyl tetrazolium bromide-Sigma Aldrich). Cells were plated at a density of 1 × 10^5 cells/well in 96-well plates for 24 h in normal propagation media. The cultures were then exposed to C1 and C2 complexes in different concentrations (50, 25, 12.5, 2, and 0.2 µM). The complexes were first solubilized in DMSO (Sigma) and then serial dilutions in media were performed until the final concentration of DMSO was less than 1%. As a positive control, cisplatin (Ebewe Pharma Ges.m.b.H. Nfg. KG, Austria) was used, in the same concentrations as the complexes. As a negative control, cell lines cultivated in normal expansion medium with the same amount of DMSO added were used. The cellular viability was determined using the MTT assay at 24, 48, and 72 h, respectively. Formazan particles were solubilized with DMSO and absorbances were determined at 550 nm using a microplate reader (Bio-Rad, Hercules, CA, USA). The cytotoxic activity, expressed as IC50 values representing the complex solution required to inhibit 50% of the cell proliferation, were calculated from the calibration curve by nonlinear regression. Each experiment was carried out in triplicate.
# [2] = test system: normal fibroblastic epithelial cell line (HFL1); assay: MTT cytotoxicity assay, HFL1; type: cell-based; settings: HFL1 cells
# Description: as §1, §2, §3
# [3] = test system: human cervical carcinoma line (HeLa); assay: MTT cytotoxicity assay, HeLa; type: cell-based; settings: HeLa cells
# Description: as §1, §2, §3
# [4] = test system: Bacillus cerreus ATCC 14579; assay: Disk diffusion method, B. cerreus; type: cell-based; settings: Bacillus, ATCC14579; complexes 5 µL of 1 mg/mL; 25 µg Amoxicillin, 5 µg Norfloxacin; 24 h, 37 °C; read-out: Halo Zone Test (diameter of the inhibition zone)
# Source text: (§4) The disk diffusion method was used to determine the antibacterial activity of the C1 and C2 copper complexes on four reference microbial strains, two Gram-positive (Staphylococcus aureus and Bacillus cerreus) and two Gram-negative (Escherichia coli and Pseudomonas aeruginosa) strains. The disk diffusion method was used to determine the antibacterial activity of the C1 and C2 copper complexes. The method was adapted for the purposes of the current study, according to the standards developed by the Clinical and Laboratory Standards Institute. Four reference microbial strains, two Gram-positive (Staphylococcus aureus ATCC […] and Bacillus cerreus ATCC 14579) and two Gram-negative (Escherichia coli ATCC 10536 and Pseudomonas aeruginosa ATCC 27853) strains, were used for in vitro susceptibility testing. These reference microbial strains were obtained from the American Type Culture Collection (ATCC, Manassas, VA, USA). As positive controls, Amoxicillin (Oxoid Ltd., Basingstoke, UK) and Norfloxacin (Sigma-Aldrich) were used. For each of the four species, an initial suspension of bacterial cultures was inoculated on nutrient agar plates (Merck KGaA, Darmstadt, Germany), incubated for 24 h at 37 ± 2 °C and resuspended in a physiological saline buffer to a […] concentration (on a 0.5 McFarland scale), and further inoculated on Muëller Hinton agar plates (Merck KGaA, Darmstadt, Germany). […] After inoculation, the medium surface was dried and 8 wells were radially drilled 1.5 cm from the outer edge, 3 cm apart. From aliquot samples of 1 mg/mL of each copper complex dissolved in DMSO and incorporated in sterile liquid medium, 5 μL was placed in each of the 8 wells and left for 30 min to diffuse into the agar plates. The plates were then incubated for 24 h at 37 ± 2 °C. Then, 25 μg Amoxicillin and 5 μg Norfloxacin served as a positive controls, while DMSO 0.75% was used as a negative control. Readings were conducted by measuring the diameter of the inhibition zone (Halo Zone Test, in mm). The germ sensitivity of the copper complexes was estimated by comparing the diameter of the inhibition area to that generated by the regular antibiotics with known inhibition values. […] All tests were triplicated, and the measured diameters of the inhibition zone were expressed (in mm) as mean ± standard deviation.
# [5] = test system: Escherichia coli ATCC 10536; assay: Disk diffusion method, E. coli; type: cell-based; settings: Escherichia coli, ATCC10536; complexes 5 µL of 1 mg/mL; 25 µg Amoxicillin, 5 µg Norfloxacin; 24 h, 37 °C; read-out: Halo Zone Test (diameter of the inhibition zone)
# Source text: as §4
# [6] = test system: Pseudomonas aeruginosa ATCC 27853; assay: Disk diffusion method, P. aeruginosa; type: cell-based; parameters: key to Halo Zone Test, class symbol: R = resistant; settings: 24 h, 37 °C
# Source text: as §4
# [7] = test system: Staphylococcus aureus ATCC 6538P; assay: Disk diffusion method, S. aureus; type: cell-based; settings: Staphylococcus aureus, ATCC6538P; complexes 5 µL of 1 mg/mL; 25 µg Amoxicillin, 5 µg Norfloxacin; 24 h, 37 °C; read-out: Halo Zone Test (diameter of the inhibition zone)
# Source text: as §4
# HeLa, WM35, HFL1 cells = type: cell-based
# Description: as §1
# This means that the cyytotoxicity is given by the complexes and that the chelation of the ligands with the copper ion is essential for the cytotoxicity of the complexes.
# The cytotoxicity assays were performed using the MTT assay (3-(4,5-dimethylthiazol-2-yl)-2,5-diphenyl tetrazolium bromide-Sigma Aldrich). Cells were plated at a density of 1 × 10^5 cells/well in 96-well plates for 24 h in normal propagation media. The cultures were then exposed to C1 and C2 complexes in different concentrations (50, 25, 12.5, 2, and 0.2 µM). The complexes were first solubilized in DMSO (Sigma) and then serial dilutions in media were performed until the final concentration of DMSO was less than 1%. […] The cellular viability was determined using the MTT assay at 24, 48, and 72 h, respectively. Formazan particles were solubilized with DMSO and absorbances were determined at 550 nm using a microplate reader (Bio-Rad, Hercules, CA, USA). […]
# [8] = SOD mimetic activity, xanthine/xanthine oxidase system, NBT reduction; type: biochemical; settings: pH 7.8, read-out: SOD-like activity IC50 (50% inhibition of NBT reduction)
# Description: The SOD-like activities of complexes C1 and C2 were determined by an indirect method using the xanthine/xanthine oxidase system as the source of superoxide radicals. […] The IC50 value for native Cu2Zn2SOD is 0.006 μΜ. Thus, the IC50 values for both complexes are higher than the IC50 value for native Cu2Zn2SOD but are similar to those of complexes with related sulfonamide ligands presented in the literature.
# The in vitro SOD mimetic activities of the complexes were assayed using the Oberley and Spitz method with some minor modifications. To generate a reproductible and constant flux of superoxide anions, xanthine (1.5 × 10^−4 M) and xanthine oxidase in 50 mM potassium phosphate buffer, pH = 7.8, were used. The superoxide anions were detected by the reduction of nitro blue tetrazolium (NBT) (5.6 × 10^−5 M) to blue formazane, which was determined spectrophotometrically at 560 nm. Different concentrations of the complexes (50, 25, 12.5, 2, and 0.2 μM) were prepared in 50 mM Tris-HCl buffer, pH = 7.8. For each determination, 0.1 mL complex solution + 0.1 mL xanthine oxidase were added to 0.8 mL of solution containing 0.69 mL potassium phosphate buffer (pH = 7.8), 0.025 mL NBT, and […]. The inhibition percentage of NBT reduction was used to determine the SOD activities of the complexes. The conversion of xanthine to uric acid was measured at 310 nm. The % inhibition of enzyme activity was subtracted from that of NBT. The IC50 values (the concentration of complex needed to yield 50% inhibition of NBT reduction) were determined from plots of % inhibition versus complex concentration. A Specord 200 Plus Spectrophotometer was used to perform the determinations and all reagents were purchased from Sigma-Aldrich.
molecule,measurement,setting,value
"N.N.[Cl][Pt][Cl] [Cisplatin, cisplatin, reference compound]",IC50,[1]; 24 h,26.1 ± 0.43 µM
same,IC50,[1]; 48 h,11.15 ± 0.09 µM
same,IC50,[1]; 72 h,5.98 ± 0.03 µM
same,IC50,[2]; 24 h,13.2 ± 0.89 µM
same,IC50,[2]; 48 h,3.99 ± 0.22 µM
same,IC50,[2]; 72 h,1.18 ± 0.13 µM
same,IC50,[3]; 24 h,21.03 ± 0.14 µM
same,IC50,[3]; 48 h,6.02 ± 0.19 µM
same,IC50,[3]; 72 h,2.39 ± 0.04 µM
"CCn1cc(C(=O)O)c(=O)c2cc(F)c(N3CCNCC3)cc21 [Norfloxacin, reference compound]",zone of inhibition at 1000 µg/mL,[4],18 ± 0.19 mm
same,zone of inhibition at 1000 µg/mL,[5],20 ± 0.11 mm
same,zone of inhibition at 1000 µg/mL,"[6]; Pseudomonas aeruginosa, ATCC27853, complexes 5 µL of 1 mg/mL, 5 µg Norfloxacin, read-out: Halo Zone Test (diameter of the inhibition zone)",25 ± 0.24 mm
same,zone of inhibition at 1000 µg/mL,[7],16 ± 0.21 mm
"CC1(C)S[C@@H]2[C@H](NC(=O)[C@H](N)c3ccc(O)cc3)C(=O)N2[C@H]1C(=O)O [Amoxicillin, reference compound]",zone of inhibition at 1000 µg/mL,[4],13 ± 0.22 mm
same,zone of inhibition at 1000 µg/mL,[5],18 ± 0.09 mm
same,"Halo Zone Test, class symbol",[6]; 25 µg Amoxicillin,R
same,zone of inhibition at 1000 µg/mL,[7],19 ± 0.14 mm
"CCc1nnc(NS(=O)(=O)c2cccc3ccccc23)s1 [HL2, N-(5-ethyl-[1,3,4]–thiadiazole–2-yl)-naphtalenesulfonamide]",cytotoxicity of the free ligands,"HeLa, WM35, HFL1 cells",no significant cytotoxicity
"Cc1ccc(-c2nnc(NS(=O)(=O)c3cccc4ccccc34)s2)cc1 [HL1, N-(5-(4-methylphenyl)-[1,3,4]–thiadiazole–2-yl)-naphtalenesulfonamide]",cytotoxicity of the free ligands,"HeLa, WM35, HFL1 cells",no significant cytotoxicity
"Cu2Zn2SOD: native Cu2Zn2 superoxide dismutase enzyme, comparison for SOD-like activity",IC50,[8],0.006 µM
